Measurements: PMC3068151 (PLoS ONE, 2011)
Values belong to the molecule of their own block, whether it stands above or below them.

Key:
EphA2-ephrinA1 binding = target: T1, EphA2-ephrinA1 binding (Mus musculus, UniProt Q03145); assay: ELISA EphA2-ephrinA1 binding (displacement and saturation); details: for decrease of EphA2-ephrinA1 binding: bile acids, repeat of the 200 µM experiment
T1 construct: we immobilized EphA2-Fc- ectodomain on proper ELISA plates; purchased R&D systems 639-A2 (EphA2-Fc); BT602 (biotinylated ephrinA1-Fc)
Method: Our chemical collection (Table S1) was stocked in a 20 mM dimethyl sulfoxide (DMSO) solution and we performed binding assay at a concentration of 200 µM. Only compounds displacing more than 40% ephrinA1 from EphA2 receptor were considered for a full concentration-binding curve. […] The day after wells were washed three times with washing buffer (PBS +0.05% tween20, pH 7.5) and blocked with 300 µl of blocking solution (PBS +0.5% BSA) for 1 hour at 37°C. Compounds were added to the wells at proper concentration in 1% dimethyl sulfoxide (DMSO) and incubated at 37°C for 1 hour. Biotinylated ephrinA1-Fc (R&D BT602) was added at 37°C for 4 hours at 30 ng/ml in displacement assays or in a range from 1 to 2000 ng/ml in saturation studies. […] The reaction was stopped with 3N HCl 100 µl/well and the absorbance was measured using an ELISA plate reader (Sunrise, TECAN, Switzerland) at 450 nm.
The IC50 value was determined using one-site competition non-linear regression and Kd values of the curves with or without antagonists were calculated using one-binding site non-linear regression analysis with Prism software (GraphPad Software Inc.). The Ki was obtained using Schild plot where Log[DR-1] is a function of the negative Log10 of the inhibitor concentration. The Hill's coefficient was calculated using linear fitting to evaluate whether the inhibition was competitive or uncompetitive.
To identify compounds interfering with EphA2-ephrinA1 binding we immobilized EphA2-Fc- ectodomain on proper ELISA plates and binding of biotinylated-ephrin-A1-Fc was detected using the colorimetric reaction developed by streptavidine-HRP and tetramethylbenzidine.

EphA2 [1] = target: T2, EphA2 (Homo sapiens, UniProt P29317); assay: Phosphorylated-EphA2 sandwich ELISA in PC3 cell lysates; format: cell-based; design: their known ability to naturally express EphA2; endogenous in cells; host or cells: PC3 (A5); details: PC3 cells, 100 µM
Method: (§1) Cells were seeded in 12-well plates at concentration of 10^5cells/ml in complete medium until they reached ∼40% confluence and serum starved overnight. The day after cells were treated with compounds under study, vehicle or standard drug, stimulated with the proper agonist, rinsed with sterile PBS and solubilized in lysis buffer. The lysates were resuspended and rocked at 4°C for 30 minutes and then centrifuged at 14000 xg for 5 minutes. The protein content of supernatant was measured with BCA protein assay kit (Thermo scientific), standardized to 200 µg/ml and transferred into a clean test tube ready to be used.
(§2) EphA2-, EphB4- and EGFR-phosphorylation were measured in cell lysates using DuoSet®IC Sandwich ELISA (RnD Systems, #DYC4056, #DYC4057 and #DYC1095, respectively) following manufacturer's protocol. […] The day after wells were washed and blocked for 1 hour at room temperature. After that, wells were washed and 100 µl/well of lysates were added at room temperature for 2 hours; wells were washed and incubated with Detection Antibody at room temperature for 2 hours.
(§3) EphB4 phosphorylation was stimulated with 3 µg/ml ephrinB2-Fc, preclustered with 0.3 µg/ml IgG Fc fragment on T47D cells (G, H, I). […] Phospho-EphA2/B4 levels are relative to ephrinA1/B2-Fc+DMSO. Data are the means of at least three independent experiment ± st. err. One-way ANOVA followed by Dunnet's post test was performed comparing Fc to all other columns for Fig A, D, G and ephrinA1-Fc+DMSO to all other columns for Fig B,C,E, F, H, I. *, p<0.05, **, p<0.01.

EphA2 [2] = target: T2, EphA2; assay: Phosphorylated-EphA2 sandwich ELISA in HT29 cell lysates; format: cell-based; design: their known ability to naturally express EphA2; endogenous in cells; host or cells: HT29 (A6); details: HT29 cells, 100 µM
Method: as §1, §2, §3

T2 sequence (P29317 24-976): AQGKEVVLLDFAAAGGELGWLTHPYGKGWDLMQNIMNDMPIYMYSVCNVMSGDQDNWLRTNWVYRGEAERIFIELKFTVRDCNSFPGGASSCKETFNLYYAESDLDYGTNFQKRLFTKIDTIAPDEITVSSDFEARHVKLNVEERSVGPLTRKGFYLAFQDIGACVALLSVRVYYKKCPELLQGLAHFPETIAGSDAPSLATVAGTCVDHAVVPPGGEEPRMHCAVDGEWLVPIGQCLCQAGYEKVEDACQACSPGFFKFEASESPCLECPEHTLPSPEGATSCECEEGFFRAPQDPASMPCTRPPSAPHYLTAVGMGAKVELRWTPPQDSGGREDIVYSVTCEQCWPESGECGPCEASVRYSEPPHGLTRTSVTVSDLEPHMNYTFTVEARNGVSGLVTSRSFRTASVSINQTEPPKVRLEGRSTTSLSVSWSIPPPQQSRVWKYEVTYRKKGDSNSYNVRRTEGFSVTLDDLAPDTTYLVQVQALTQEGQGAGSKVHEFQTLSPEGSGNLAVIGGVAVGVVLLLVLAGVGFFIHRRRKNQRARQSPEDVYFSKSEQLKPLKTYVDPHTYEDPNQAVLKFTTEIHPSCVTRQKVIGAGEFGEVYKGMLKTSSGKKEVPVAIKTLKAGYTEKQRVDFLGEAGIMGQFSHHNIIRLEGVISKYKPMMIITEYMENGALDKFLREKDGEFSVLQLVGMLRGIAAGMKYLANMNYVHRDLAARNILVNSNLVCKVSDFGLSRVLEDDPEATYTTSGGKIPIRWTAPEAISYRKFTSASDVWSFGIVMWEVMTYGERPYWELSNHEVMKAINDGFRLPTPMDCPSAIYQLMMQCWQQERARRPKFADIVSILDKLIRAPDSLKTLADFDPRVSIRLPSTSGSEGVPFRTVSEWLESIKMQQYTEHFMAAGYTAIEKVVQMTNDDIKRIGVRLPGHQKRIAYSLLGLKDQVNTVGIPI
T1 sequence (Q03145 26-538 limits assumed): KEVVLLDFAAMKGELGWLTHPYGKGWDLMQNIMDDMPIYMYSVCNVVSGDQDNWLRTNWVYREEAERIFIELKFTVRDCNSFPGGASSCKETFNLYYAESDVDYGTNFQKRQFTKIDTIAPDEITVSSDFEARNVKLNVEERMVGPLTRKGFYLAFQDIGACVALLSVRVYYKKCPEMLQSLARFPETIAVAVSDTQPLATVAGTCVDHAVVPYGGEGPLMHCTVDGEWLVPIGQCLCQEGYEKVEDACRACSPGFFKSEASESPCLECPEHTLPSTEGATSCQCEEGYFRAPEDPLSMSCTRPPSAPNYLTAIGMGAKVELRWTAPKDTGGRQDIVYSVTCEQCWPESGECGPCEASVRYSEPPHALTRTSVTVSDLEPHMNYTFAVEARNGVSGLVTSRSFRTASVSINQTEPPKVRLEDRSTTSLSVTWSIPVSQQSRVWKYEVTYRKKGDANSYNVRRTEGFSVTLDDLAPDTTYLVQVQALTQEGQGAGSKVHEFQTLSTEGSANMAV

Molecule: C[C@H](CCC(=O)O)[C@H]1CC[C@H]2[C@@H]3[C@H](O)C[C@@H]4C[C@H](O)CC[C@]4(C)[C@H]3C[C@H](O)[C@]12C [CA, cholic]
decrease of EphA2-ephrinA1 binding (EphA2-ephrinA1 binding): did not displaced
effect on Eph kinase phosphorylation as agonist or antagonist (EphA2 [1]): inactive
effect on Eph kinase phosphorylation as agonist or antagonist (EphA2 [2]): inactive

Molecule: C[C@H](CCC(=O)O)[C@H]1CC[C@H]2[C@@H]3[C@H](O)C[C@@H]4C[C@H](O)CC[C@]4(C)[C@H]3CC[C@]12C [CDCA, chenodeoxycholic]
decrease of EphA2-ephrinA1 binding (EphA2-ephrinA1 binding): did not displaced
effect on Eph kinase phosphorylation as agonist or antagonist (EphA2 [1]): inactive
effect on Eph kinase phosphorylation as agonist or antagonist (EphA2 [2]): inactive

Next, values leading:

decrease of EphA2-ephrinA1 binding (EphA2-ephrinA1 binding): did not displaced
effect on Eph kinase phosphorylation as agonist or antagonist (EphA2 [1]): inactive
effect on Eph kinase phosphorylation as agonist or antagonist (EphA2 [2]): inactive
Molecule: C[C@H](CCC(=O)O)[C@H]1CC[C@H]2[C@@H]3CC[C@@H]4C[C@H](O)CC[C@]4(C)[C@H]3C[C@H](O)[C@]12C [DCA, deoxycholic]

Ki of EphA2-biotinylated-ephrin-A1 binding inhibition (EphA2-ephrinA1 binding; assay validation, Figure S1): 0.102 µg/mL
B1: ephrinA1-Fc: recombinant ephrinA1-Fc protein, ligand of the EphA2-Fc receptor (protein)
chain: DRHIVFWNSSNPKFREEDYTVHVQLNDYLDIICPHYEDDSVADAAMERYTLYMVEHQEYVACQPQSKDQVRWNCNRPSAKHGPEKLSEKFQRFTPFILGKEFKEGHSYYYISKPIYHQESQCLKLKVTVNGKITHNPQAHVNPQEKRLQADDPEVQVLHSIGYS
modifications: Ectodomain only, with the C-terminal IgG Fc carrier omitted; The Fc chimera is a disulfide-linked dimer; Limits follow the mature ectodomain without the signal peptide and GPI propeptide, by supplier
